{"source": "patent US20160124002A1", "about": "“METHOD FOR DETECTING HYPOXIA OR DIAGNOSING HYPOXIA-RELATED DISEASES” (SEOUL NATIONAL UNIVERSITY R&DB FOUNDATION, priority 2013, published 2016)", "test_system": "THP-1 cell line", "assay": "Metabolites in culture medium of THP-1 cells under low oxygen with HIF-1 inhibition (LC/Q-TOF MS)", "assay_type": "cell-based, human", "details": "THP-1 culture medium, low oxygen (1% O2)", "procedure": "A THP-1 cell line, a human monocyte-derived cell line was cultured in the conditions of regular oxygen (21% oxygen), low oxygen (1% oxygen), and regular oxygen after low oxygen (reoxygenation), and then, the metabolites included in the culture media were identified and quantified using a LC/Q-TOF MS analysis as follows.\nThe human-derived monocyte cells (THP-1) (Korean Cell Line Bank, KCLB No. 40202) at 5×10^5 cells/4 mL medium were cultured in DMEM (Dulbecco's modified Eagle's medium) including 10% FBS (fetal bovine serum) under the condition of regular oxygen (21% O2, 5% CO2) at 37° C. for 24 hours, the condition of low oxygen (1% O2, 5% CO2) at 37° C. for 24 hours, or the condition of regular oxygen for 16 hours after low oxygen for 8 hours (reoxygenation) at 37° C.\nAfter that, the media without the cells were isolated to obtain the samples to be analyzed. The media were subjected to a centrifugation at 3000 rpm and 4° C. to obtain supernatants only. The supernatants were then aliquoted and stored in a −70° C. cryogenic deep-freezer, and were thawed immediately before use.\nIn order to decrease the expression of a hypoxia-inducible factor-1 (HIF-1), a major regulator in a low oxygen environment, two types of si-HIF-1alpha (#1, 5′-CAAAGUUAAAGCAUCAGG-3′; #2, 5′-UGUACUGUCCUGUGGUGA-3′) were prepared, and then used for transfection into the cells using Lipofectamine RNA iMAX reagents (Life Technologies, USA) following the manufacturer's instruction. In addition, 2-methoxyestradiol (2ME2) and 17-N-Allylamino-17-demethoxygeldanamycin (17-AAG) used (Selleck chemicals) as the inhibitors of HIF-1 were used, and YC-1 was purchased from A.G. Scientific. The cells were treated also with 2ME2 and 17-AAG at the concentrations of 100 μM during the exposure of a low oxygen condition.\nH2O (400 μl) at 4° C. and medium (100 μl) were put into a 1.5 ml micro tube so as to be diluted. After that, the sample was mixed well using a vortex, and then was filtered/centrifuged at 4° C. and 14,000 g for 20 minutes to obtain the supernatant thereof. The supernatant was collected in assay vials. In addition, for a QC (quality control) assay, the diluted samples of 50 μl from all the samples were mixed (pooling).\nThe samples that were prepared as described above were isolated by the system equipped with a reverse column, Zorbax SB-C18, 50×2.1 mm, 1.8 μm (Agilent Technologies, USA) in Binary Agilent 1200 series HPLC (Agilent Technologies). At this time, the assay sample in the amount of 5 μl was injected so as to pass through the column that was heated at 40° C. The metabolite sample was subjected to a gradient elution with 98% solvent A (2 mM ammonium formate and 0.1% formic acid in H2O) and 2% solvent B (0.1% formic acid in methanol) at the rate of 400 μl/min for 21 minutes. In order to avoid a cross-contamination, a blank run was performed between the sample runs.\nESI algorithm was used by coupling an Agilent 6530 quadrupole time-of-flight (Q-TOF) mass spectrometer (Agilent Technologies) with HPLC. Four centroid data per one second for one spectrum from 100 to 1100 m/z were obtained, and the m/z for all the spectra were calibrated in real time using the reference value externally supplied.\nThe metabolites were first identified from the mass spectra in the HMDB (http://www.hmdb.ca/) and METLIN (http://metlin.scripps.edu/) database using a software (Agilent MassHunter Qualitative Analysis (version B.05.00), Agilent Mass Profiler Professional (version B.02.02)). After that, the cleavage pattern by the LC/MS/MS assay of the corresponding metabolite was subjected to an additional confirmation work as compared to a practical standard material (Cayman, Ann Arbor, Mich., USA).\nThe relative concentration of the corresponding metabolites was calculated using the chromatograph area of the respective metabolite in the culture solution obtained from the corresponding cells. […]", "key": {"[1]": {"details": "treated with HIF-1 inhibitor (2ME2 and 17-AAG at 100 μM), FIG. 4"}, "[2]": {"details": "HIF-1 expression inhibited by si-RNA, FIG. 3"}}}
{"molecule": "COc1cc2c(cc1O)CC[C@@H]1[C@@H]2CC[C@]2(C)[C@@H](O)CC[C@@H]12", "note": "[2ME2, 2-methoxyestradiol]", "values": [{"measurement": "5-HETE that was increased under the low oxygen condition (H)", "setting": "[1]", "result": "decreased"}, {"measurement": "5-oxoETE that was increased under the low oxygen condition (H)", "setting": "[1]", "result": "decreased"}]}
{"molecule": "C=CCNC1=C2C[C@@H](C)C[C@H](OC)[C@H](O)[C@@H](C)/C=C(\\C)[C@H](OC(N)=O)[C@@H](OC)/C=C\\C=C(/C)C(=O)NC(=CC1=O)C2=O", "note": "[17-AAG, 17-N-Allylamino-17-demethoxygeldanamycin]", "values": [{"measurement": "5-HETE that was increased under the low oxygen condition (H)", "setting": "[1]", "result": "decreased"}, {"measurement": "5-oxoETE that was increased under the low oxygen condition (H)", "setting": "[1]", "result": "decreased"}]}
{"molecule": "OCc1ccc(-c2nn(Cc3ccccc3)c3ccccc23)o1", "note": "[YC-1]", "values": [{"measurement": "5-HETE that was increased under the low oxygen condition (H)", "setting": "[1]", "result": "decreased"}, {"measurement": "5-oxoETE that was increased under the low oxygen condition (H)", "setting": "[1]", "result": "decreased"}]}
{"molecule": "si-HIF-1a#1: si-RNA against HIF-1alpha, 5′-CAAAGUUAAAGCAUCAGG-3′ (chemistry not given here)", "values": [{"measurement": "5-HETE that was increased under the low oxygen condition (H)", "setting": "[2]", "result": "decreased"}, {"measurement": "5-oxoETE that was increased under the low oxygen condition (H)", "setting": "[2]", "result": "decreased"}]}
{"molecule": "si-HIF-1a#2: si-RNA against HIF-1alpha, 5′-UGUACUGUCCUGUGGUGA-3′ (chemistry not given here)", "values": [{"measurement": "5-HETE that was increased under the low oxygen condition (H)", "setting": "[2]", "result": "decreased"}, {"measurement": "5-oxoETE that was increased under the low oxygen condition (H)", "setting": "[2]", "result": "decreased"}]}
